Data taken from patent US5516908A, “1,3-dihydro-2H-imidazo-[4,5-β]quinolin-2-one derivatives and intermediates” (Janssen Pharmaceutica N.V., priority 1995, dated 1996).

Tests used:
Type in all cases: biochemical
Human MNL PDE IV = assay: Inhibition of Phosphodiesterase Type IV From Human Mononuclear Lymphocytes (MNL); settings: human mononuclear lymphocyte PDE IV; in presence of 10^-4 M cGMP; 1.2 μM 3H-cAMP, pH 7.1, 10 min at 37° C.
Procedure: (§1) The alleviating and/or curing effect of the instant compounds on allergic and atopic diseases was assessed by an in vitro assay system to detect an inhibiting effect on the phosphodiesterase type III in human and canine muscle cells and a similar inhibiting effect on the phosphodiesterase type IV in human mononuclear lymphocytes.
Human blood was obtained from donors that were documented before to suffer from allergic or atopic disease. 35 ml of blood was obtained from the […] veins by venipuncture and collected in 5 ml 100 mM K2 EDTA pH 7.1. 4 ml of 0.6% dextran in saline was added and the mixture was left at room temperature for 30 min. The red blood cell free supernatant was collected, layered gently on a Lymphoprep solution and centrifuged at 750 g for 15 min at 18° C. The interfase was collected, diluted with a buffer containing […], 50 mM KCl and 100 mM HEPES at pH 7.4, and centrifuged at 900 g for 10 min at 10° C. The resulting pellet was resuspended in the same buffer.
The suspension of MNLs was adjusted to 1% Triton X100 and 0.3% Brij35 and frozen in liquid N2. After 3 freeze-thawn cycles, the suspension was homogenized at 4° C. in a Polytron PT3000 (Kinematica AG) homogenizer (PT-DA 3020/2 TS) at 8000 rpm for 5×10 sec, followed by sonication at 4° C. in a Branson sonifier 250 at a frequency output of 20000 Hz, working output 40 W for 10×30 sec. The homogenate was centrifuged at 10000 g for 10 min. The resulting supernatant was used as source for PDE IV activity. The incubation mixture (pH 7.1) (200 μl) contained 40 mM Tris, 3.75 mM 2-mercapto-ethanol, 6 mM magnesium chloride, 1.2 μM ^3 H-cAMP (310 mCi/mmole) and the phosphodiesterase type IV, the amount depending on the enzymatic activity. […] To block contaminating PDE III activity, PDE IV activity was measured in the presence of 10^-4 M cGMP.
(§2) When the effect of different compounds on phosphodiesterase activity was tested, the medium without cAMP was incubated with the compound(s) or its carrier (DMSO-1% final concentration) for 5 min. The enzymatic reaction was started by addition of ^3 H-cAMP and stopped 10 min later after transferring the tubes in a waterbath at 100° C. for 40 sec. After cooling to room temperature, alkaline phosphatase (0.25 μg/ml) was added and the mixture was left at room temperature for 20 min. The mixture was subsequently applied to a 1 ml DEAE-Sephadex A-25 column (pasteur pipet) and washed twice with 3 ml 20 mM Tris-HCl at pH 7.4. The ^3 H-labelled reaction products in the eluate were quantified by liquid scintillation counting.
The inhibiting effect of the present compounds on human mononuclear lymphocyte phosphodiesterase PDE IV was measured at different concentrations of the instant compounds. The IC50 values were calculated graphically from the thus obtained inhibition values.

Human heart PDE III = biological target: T1, Human heart PDE III (Homo sapiens, UniProt Q14432); assay: Inhibition of Phosphodiesterase Type III (PDE III), human heart; settings: 1.2 μM 3H-cAMP, pH 7.1, 10 min at 37° C.
T1 construct: canine and human heart phosphodiesterase PDE III; from tissue; host or cells: human heart (muscle)
Procedure: as §1
(§3) The incubation mixture (pH 7.1) (200 μl) contained 40 mM Tris, 3.75 mM 2-mercaptoethanol, 6 mM magnesium chloride, 1.2 μM ^3 H-cAMP (310 mCi/mmole) and the phosphodiesterase type III, the amount depending on the enzymatic activity.
as §2
(§4) The inhibiting effect of the present compounds on canine and human heart phosphodiesterase PDE III was measured at different concentrations of the instant compounds. The IC50 values were calculated graphically from the thus obtained inhibition values.

Canine heart PDE III = biological target: T2, Canine heart PDE III (Canis lupus familiaris, UniProt A0A8I3NYE0); assay: Inhibition of Phosphodiesterase Type III (PDE III), canine heart; settings: 1.2 μM 3H-cAMP, pH 7.1, 10 min at 37° C.
T2 construct: canine and human heart phosphodiesterase PDE III; from tissue; host or cells: canine heart (muscle)
T2 sequence (A0A8I3NYE0 1-1135): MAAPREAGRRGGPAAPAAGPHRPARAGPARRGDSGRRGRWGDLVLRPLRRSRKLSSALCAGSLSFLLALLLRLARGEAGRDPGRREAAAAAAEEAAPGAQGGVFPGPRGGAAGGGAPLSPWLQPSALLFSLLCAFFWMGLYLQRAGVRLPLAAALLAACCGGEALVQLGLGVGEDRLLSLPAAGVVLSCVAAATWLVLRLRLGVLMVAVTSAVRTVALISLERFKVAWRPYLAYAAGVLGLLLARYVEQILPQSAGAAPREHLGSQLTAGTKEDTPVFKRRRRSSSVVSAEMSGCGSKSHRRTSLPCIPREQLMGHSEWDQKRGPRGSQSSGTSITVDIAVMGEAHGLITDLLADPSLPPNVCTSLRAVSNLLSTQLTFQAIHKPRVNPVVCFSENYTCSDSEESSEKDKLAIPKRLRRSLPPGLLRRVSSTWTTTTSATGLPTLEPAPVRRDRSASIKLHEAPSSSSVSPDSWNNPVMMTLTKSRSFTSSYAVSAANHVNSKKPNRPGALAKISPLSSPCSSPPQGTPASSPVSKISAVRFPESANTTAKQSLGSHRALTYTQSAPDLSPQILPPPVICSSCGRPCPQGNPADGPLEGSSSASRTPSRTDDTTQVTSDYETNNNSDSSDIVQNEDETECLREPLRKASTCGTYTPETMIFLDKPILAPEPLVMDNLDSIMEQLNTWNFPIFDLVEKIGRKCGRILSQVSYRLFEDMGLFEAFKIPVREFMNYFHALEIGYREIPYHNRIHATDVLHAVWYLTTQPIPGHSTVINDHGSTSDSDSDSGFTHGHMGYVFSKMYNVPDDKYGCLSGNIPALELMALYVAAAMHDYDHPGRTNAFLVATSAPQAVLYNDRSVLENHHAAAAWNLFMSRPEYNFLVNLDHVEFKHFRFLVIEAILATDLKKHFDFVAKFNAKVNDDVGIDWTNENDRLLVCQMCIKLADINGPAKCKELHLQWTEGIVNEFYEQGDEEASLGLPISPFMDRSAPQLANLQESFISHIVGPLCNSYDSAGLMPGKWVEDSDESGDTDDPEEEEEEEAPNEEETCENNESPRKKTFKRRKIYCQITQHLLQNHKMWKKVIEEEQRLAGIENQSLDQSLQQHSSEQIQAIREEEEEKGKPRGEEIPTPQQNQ
Procedure: as §1, §3, §2, §4

T1 sequence (Q14432 whole entry): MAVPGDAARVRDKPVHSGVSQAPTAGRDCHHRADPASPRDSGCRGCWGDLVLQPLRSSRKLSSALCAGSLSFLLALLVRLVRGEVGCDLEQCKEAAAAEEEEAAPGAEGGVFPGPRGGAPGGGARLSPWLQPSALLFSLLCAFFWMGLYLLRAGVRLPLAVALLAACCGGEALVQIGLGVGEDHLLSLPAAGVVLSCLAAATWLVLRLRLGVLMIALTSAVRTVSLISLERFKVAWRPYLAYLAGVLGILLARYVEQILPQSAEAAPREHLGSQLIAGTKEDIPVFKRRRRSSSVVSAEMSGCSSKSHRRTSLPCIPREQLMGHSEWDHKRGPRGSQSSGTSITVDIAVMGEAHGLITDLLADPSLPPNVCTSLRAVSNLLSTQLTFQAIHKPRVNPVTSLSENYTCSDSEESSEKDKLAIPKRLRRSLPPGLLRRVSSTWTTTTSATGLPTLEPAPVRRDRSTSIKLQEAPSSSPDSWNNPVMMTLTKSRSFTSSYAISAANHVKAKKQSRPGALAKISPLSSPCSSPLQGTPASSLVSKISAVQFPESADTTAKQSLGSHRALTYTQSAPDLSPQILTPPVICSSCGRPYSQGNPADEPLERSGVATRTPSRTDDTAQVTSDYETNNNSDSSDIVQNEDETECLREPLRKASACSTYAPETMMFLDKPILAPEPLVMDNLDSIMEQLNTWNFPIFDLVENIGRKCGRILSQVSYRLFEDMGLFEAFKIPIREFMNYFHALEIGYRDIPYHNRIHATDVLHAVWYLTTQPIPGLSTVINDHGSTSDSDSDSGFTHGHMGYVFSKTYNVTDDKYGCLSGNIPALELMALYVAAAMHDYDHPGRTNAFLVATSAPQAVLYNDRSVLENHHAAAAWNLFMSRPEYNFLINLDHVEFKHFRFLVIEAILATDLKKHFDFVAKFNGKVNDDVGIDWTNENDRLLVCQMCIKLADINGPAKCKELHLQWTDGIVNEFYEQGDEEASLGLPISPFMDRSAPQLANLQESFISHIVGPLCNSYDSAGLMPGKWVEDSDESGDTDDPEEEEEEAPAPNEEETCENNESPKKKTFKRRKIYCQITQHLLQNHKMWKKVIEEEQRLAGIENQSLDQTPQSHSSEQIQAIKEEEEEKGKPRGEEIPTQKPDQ

| SMILES | IC50 (Human MNL PDE IV) | IC50 (Human heart PDE III) | IC50 (Canine heart PDE III) |
| --- | --- | --- | --- |
| O=C(c1ccccc1)c1ccc2nc3[nH]c(=O)[nH]c3cc2c1 [Compound 1, 7-benzoyl-1,3-dihydro-2H-imidazo[4,5-b]quinolin-2-one] | 5800 nM | 42 nM | 10 nM |
| COc1ccc(C(=O)c2ccc3nc4[nH]c(=O)[nH]c4cc3c2)cc1OC [Compound 2, 7-(3,4-dimethoxybenzoyl)-1,3-dihydro-2H-imidazo[4,5-b]quinolin-2-one] | 4500 nM | 86 nM | 33 nM |
| O=C(c1ccc(F)cc1)c1ccc2nc3[nH]c(=O)[nH]c3cc2c1 [Compound 3, 7-(4-fluorobenzoyl)-1,3-dihydro-2H-imidazo[4,5-b]quinolin-2-one] | – | 36 nM | 37 nM |
| Cc1ccc(C(=O)c2ccc3nc4[nH]c(=O)[nH]c4cc3c2)cc1 [Compound 4, 1,3-dihydro-7-(4-methylbenzoyl)-2H-imidazo[4,5-b]quinolin-2-one] | – | 18 nM | 26 nM |
| O=C(c1cccnc1)c1ccc2nc3[nH]c(=O)[nH]c3cc2c1 [Compound 5, 1,3-dihydro-7-(3-pyridinylcarbonyl-2H-imidazo[4,5-b]quinolin-2-one monohydrate] | – | 120 nM | 42 nM |
| CCOC(=O)CCCCO/N=C(\c1cccnc1)c1ccc2nc3[nH]c(=O)[nH]c3cc2c1 [Compound 6] | 1700 nM | 44 nM | 30 nM |
| CN(C(=O)CO/N=C(/c1ccccc1)c1ccc2nc3[nH]c(=O)[nH]c3cc2c1)C1CCCCC1 [Compound 7] | 2600 nM | 27 nM | 32 nM |
| COc1cccc(C(=O)c2ccc3nc4[nH]c(=O)[nH]c4cc3c2)c1 [Compound 9] | – | 18 nM | 21 nM |
| CN(C(=O)CO/N=C(\c1ccccc1)c1ccc2nc3[nH]c(=O)[nH]c3cc2c1)C1CCCCC1 [Compound 10, (E)-N-cyclohexyl-2-[[[(2,3-dihydro-2-oxo-1H-imidazo{4,5-b]quinolin-7-yl)phenylmethylene]amino]oxy]-N-methylacetamide] | 490 nM | 17 nM | 14 nM |
| CCOC(=O)CO/N=C/c1ccc2nc3[nH]c(=O)[nH]c3cc2c1 [Compound 11] | – | 39 nM | 26 nM |
| CCOC(=O)CCCCO/N=C(/c1cccnc1)c1ccc2nc3[nH]c(=O)[nH]c3cc2c1 [Compound 12] | 3600 nM | 33 nM | 29 nM |
| O=C(O)CCCCO/N=C(\c1cccnc1)c1ccc2nc3[nH]c(=O)[nH]c3cc2c1 [Compound 13, (Z)-5-[[[(2,3-dihydro-2-oxo-1H-imidazo[4,5-b]-quinolin-7-yl)(3-pyridinyl)methylene]amino]oxy]pentanoic acid] | – | 49 nM | 84 nM |
| O=C(O)CCCCON=C(c1cccnc1)c1ccc2nc3[nH]c(=O)[nH]c3cc2c1 [Compound 14, (E+Z)-5-[[[(2,3-dihydro-2-oxo-1H-imidazo[4,5-b]quinolin-7-yl)(3-pyridinyl)methylene]amino]oxy]pentanoic acid monohydrate] | – | 100 nM | 100 nM |
